Earlier results as cited in patent publication US5393873A, “Peptides with anticoagulant activity” (BASF Aktiengesellschaft, priority 1991, dated 1995).

Target: thrombin (Homo sapiens, UniProt P00734)

For “Val-Val-Tyr-Thr-Asp-Cys-Thr-Glu-Ser-Gly-Gln-Asn-Leu-Cys-Leu-Cys-Glu-Gly-Ser-Asn-Val-Cys-Gly-Gln-Gly-Asn-Lys-Cys-Ile-Leu-Gly-Ser-Asp-Gly-Glu-Lys-Asn-Gly-Cys-Val-Thr-Gly-Glu-Gly-Thr-Pro-Lys-Pro-Gln-Ser-His-Asn-Asp-Gly-Asp-Phe-Glu-Glu-Ile-Pro-Glu-Glu-Tyr(SO3 H)-Leu-Gln [Hirudin]”, the binding to thrombin is listed as “very strongly”.
